Results: PubChem BioAssay AID248 (DTP/NCI, 2004)
Values joined by “and” are separate entries in the source; they are usually repeats but may differ in a detail not shown here. Identical values can stand only once. Toxic doses and inconclusive results are not listed. No stated cut-off is given here; in the data, active means T/C of 150% or more; inactive means T/C below 125%.

Test system: L1210 leukemia ip in BDF1 mice, survival T/C
Assay: NCI In Vivo Anticancer Drug Screen. Data for tumor model L1210 Leukemia (intraperitoneal) in B6D2F1 (BDF1) mice
Conditions: endpoint: mean survival time, higher = longer survival
Method in brief: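 Transplantable tumor model; survival measured in treated vs vehicle control mice. Value = treated/control.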

[1] = dose: 50.0 mg/kg/injection, schedule: Q01DX001 (ip), vehicle: carboxymethylcellulose (CMC)
[2] = dose: 100.0 mg/kg/injection, schedule: Q01DX001 (ip), vehicle: carboxymethylcellulose (CMC)
[3] = dose: 200.0 mg/kg/injection, schedule: Q01DX001 (ip), vehicle: carboxymethylcellulose (CMC)
[4] = dose: 400.0 mg/kg/injection, schedule: Q01DX001 (ip), vehicle: carboxymethylcellulose (CMC)
[5] = dose: 100.0 mg/kg/injection, schedule: Q04DX003 (ip), vehicle: Klucel (hydroxypropylcellulose) (HPC)
[6] = dose: 200.0 mg/kg/injection, schedule: Q04DX003 (ip), vehicle: Klucel (hydroxypropylcellulose) (HPC)
[7] = dose: 100.0 mg/kg/injection, schedule: Q01DX009 (ip), vehicle: saline with Tween-80
[8] = dose: 100.0 mg/kg/injection, schedule: Q04DX003 (ip), vehicle: saline with Tween-80
[9] = dose: 200.0 mg/kg/injection, schedule: Q04DX003 (ip), vehicle: saline with Tween-80
[10] = dose: 400.0 mg/kg/injection, schedule: Q04DX003 (ip), vehicle: saline with Tween-80
[11] = dose: 400.0 mg/kg/injection, schedule: Q04DX003 (ip), vehicle: Klucel (hydroxypropylcellulose) (HPC)

Measured: T/C

Cc1cn(C2OC(CO)C(O)C2O)c(=O)[nH]c1=O (configuration not stated)
inactive: dose: 3.75 mg/kg/injection, schedule: Q01DX Z (ip), vehicle: saline 86 % of control | dose: 6.25 mg/kg/injection, schedule: Q03HX024 (ip), vehicle: saline 102 % of control | dose: 7.5 mg/kg/injection, schedule: Q01DX Z (ip), vehicle: saline 88 % of control | dose: 12.5 mg/kg/injection, schedule: Q03HX024 (ip), vehicle: saline 94 % of control | dose: 25.0 mg/kg/injection, schedule: Q03HX024 (ip), vehicle: saline 107 % of control | dose: 30.0 mg/kg/injection, schedule: Q01DX Z (ip), vehicle: saline 86 % of control | [1] 116 % of control | dose: 50.0 mg/kg/injection, schedule: Q03HX024 (ip), vehicle: saline 102 % of control | dose: 60.0 mg/kg/injection, schedule: Q01DX Z (ip), vehicle: saline 92 % of control | [2] 97 % of control | dose: 100.0 mg/kg/injection, schedule: Q01DX001 (ip), vehicle: saline 87 % of control | [3] 106 % of control | dose: 200.0 mg/kg/injection, schedule: Q01DX001 (ip), vehicle: saline 92 % of control | [4] 95 % of control | dose: 400.0 mg/kg/injection, schedule: Q01DX001 (ip), vehicle: saline 90 % of control

CC(C)(Cc1ccc(Cl)cc1)N=C(N)N
inactive: dose: 25.0 mg/kg/injection, schedule: Q04DX002 (ip), vehicle: Klucel (hydroxypropylcellulose) (HPC) 107 % of control | dose: 50.0 mg/kg/injection, schedule: Q04DX002 (ip), vehicle: Klucel (hydroxypropylcellulose) (HPC) 95 % of control | dose: 100.0 mg/kg/injection, schedule: Q04DX002 (ip), vehicle: Klucel (hydroxypropylcellulose) (HPC) 104 % of control

CN(C)c1ccc(/C=C/C=N/N=C/c2ccccc2O)cc1
inactive: dose: 75.0 mg/kg/injection, schedule: Q01DX001 (ip), vehicle: other 89 % of control | dose: 150.0 mg/kg/injection, schedule: Q01DX001 (ip), vehicle: other 94 % of control

O=C(Nc1ccccc1C(=O)NC1CCCC1)NC1CCCC1
inactive: [5] 89 % of control | [6] 94 % of control

O=[N+]([O-])c1cccc(SNc2cccc(Cl)c2)c1
inactive: [7] 98 % of control | [8] 93 % of control | [9] 95 % of control | [10] 90 % of control

COC(=O)c1ccc(C(C)=O)cc1
inactive: dose: 100.0 mg/kg/injection, schedule: Q01DX001 (ip), vehicle: saline with Tween-80 103 % of control | dose: 200.0 mg/kg/injection, schedule: Q01DX001 (ip), vehicle: saline with Tween-80 97 % of control | dose: 400.0 mg/kg/injection, schedule: Q01DX001 (ip), vehicle: saline with Tween-80 100 % of control

BrC1(Br)C2CCCCC21 (configuration not stated)
inactive: dose: 100.0 mg/kg/injection, schedule: Q04DX003 (ip), vehicle: acetone 90 % of control | dose: 200.0 mg/kg/injection, schedule: Q04DX003 (ip), vehicle: acetone 98 % of control and 90 % of control

CC(C)(CC(=O)O)Cc1ccccc1
inactive: dose: 50.0 mg/kg/injection, schedule: Q01DX009 (ip), vehicle: saline with Tween-80 101 % of control | [7] 93 % of control | dose: 200.0 mg/kg/injection, schedule: Q01DX009 (ip), vehicle: saline with Tween-80 101 % of control

CC(=O)CC(SCCSCCSC(CC(C)=O)c1ccccc1)c1ccccc1 (configuration not stated)
inactive: [1] 89 % of control | [2] 89 % of control | [3] 97 % of control | [4] 97 % of control

CC1(O)c2ccccc2-c2nc3ccccc3nc21 (configuration not stated)
inactive: dose: 50.0 mg/kg/injection, schedule: Q01DX009 (ip), vehicle: saline sonified 89 % of control | dose: 100.0 mg/kg/injection, schedule: Q01DX009 (ip), vehicle: saline sonified 102 % of control | dose: 100.0 mg/kg/injection, schedule: Q04DX003 (ip), vehicle: saline sonified 94 % of control | dose: 200.0 mg/kg/injection, schedule: Q01DX009 (ip), vehicle: saline sonified 102 % of control | dose: 200.0 mg/kg/injection, schedule: Q04DX003 (ip), vehicle: saline sonified 110 % of control | dose: 400.0 mg/kg/injection, schedule: Q04DX003 (ip), vehicle: saline sonified 87 % of control

CCn1cnc2cc(N=Cc3ccc(N(CCCl)CCCl)cc3)ccc21
inactive: dose: 56.3 mg/kg/injection, schedule: Q04DX002 (ip), vehicle: saline 106 % of control | dose: 112.5 mg/kg/injection, schedule: Q04DX002 (ip), vehicle: saline 117 % of control | dose: 225.0 mg/kg/injection, schedule: Q04DX002 (ip), vehicle: saline 102 % of control

Cc1ncc(C)c(=O)[nH]1
inactive: dose: 44.0 mg/kg/injection, schedule: Q01DX Z (ip), vehicle: saline 100 % of control | dose: 67.0 mg/kg/injection, schedule: Q01DX Z (ip), vehicle: saline 105 % of control | dose: 100.0 mg/kg/injection, schedule: Q01DX Z (ip), vehicle: saline 105 % of control | dose: 100.0 mg/kg/injection, schedule: Q04DX003 (ip), vehicle: saline 93 % of control | dose: 150.0 mg/kg/injection, schedule: Q01DX Z (ip), vehicle: saline 91 % of control | dose: 200.0 mg/kg/injection, schedule: Q04DX003 (ip), vehicle: saline 96 % of control

Cc1cnccc1N=Nc1ccc(N(C)C)cc1
inactive: [8] 104 % of control | [9] 104 % of control | [10] 101 % of control

c1ccc(CC2(Cc3ccccc3)N=C(c3ccccc3)C(c3ccccc3)=N2)cc1
inactive: dose: 100.0 mg/kg/injection, schedule: Q01DX009 (ip), vehicle: Klucel (hydroxypropylcellulose) (HPC) 103 % of control | [5] 102 % of control | dose: 200.0 mg/kg/injection, schedule: Q01DX009 (ip), vehicle: Klucel (hydroxypropylcellulose) (HPC) 97 % of control | [6] 103 % of control | dose: 400.0 mg/kg/injection, schedule: Q01DX009 (ip), vehicle: Klucel (hydroxypropylcellulose) (HPC) 98 % of control | [11] 97 % of control

Nc1ccc(OCCCc2c(N)nc(N)nc2N)c(Cl)c1
inactive: [5] 96 % of control | [6] 94 % of control | [11] 97 % of control

CC(=O)C12OC1(C)CC1C3CC=C4CC(O)CCC4(C)C3CCC12C (configuration not stated)
inactive: dose: 100.0 mg/kg/injection, schedule: Q01DX009 (sc), vehicle: steriod suspending solution 100 % of control | dose: 100.0 mg/kg/injection, schedule: Q04DX003 (sc), vehicle: steriod suspending solution 108 % of control | dose: 200.0 mg/kg/injection, schedule: Q01DX009 (sc), vehicle: steriod suspending solution 109 % of control | dose: 200.0 mg/kg/injection, schedule: Q04DX003 (sc), vehicle: steriod suspending solution 122 % of control | dose: 400.0 mg/kg/injection, schedule: Q01DX009 (sc), vehicle: steriod suspending solution 98 % of control | dose: 400.0 mg/kg/injection, schedule: Q04DX003 (sc), vehicle: steriod suspending solution 103 % of control

O=C1OC(c2ccc(Cl)cc2)=N/C1=C\c1c(Cl)cccc1Cl
inactive: dose: 100.0 mg/kg/injection, schedule: Q04DX002 (ip), vehicle: saline 93 % of control | dose: 200.0 mg/kg/injection, schedule: Q04DX002 (ip), vehicle: saline 107 % of control | dose: 400.0 mg/kg/injection, schedule: Q04DX002 (ip), vehicle: saline 118 % of control

CCOC(=O)c1c(C)cn2c1OC(C)CC2(C)C (configuration not stated)
inactive: dose: 100.0 mg/kg/injection, schedule: Q01DX001 (ip), vehicle: Klucel (hydroxypropylcellulose) (HPC) 105 % of control | dose: 200.0 mg/kg/injection, schedule: Q01DX001 (ip), vehicle: Klucel (hydroxypropylcellulose) (HPC) 94 % of control | dose: 400.0 mg/kg/injection, schedule: Q01DX001 (ip), vehicle: Klucel (hydroxypropylcellulose) (HPC) 96 % of control
